Experimental data as given in patent US20220274947A1, “NOVEL HETEROARYL-TRIAZOLE COMPOUNDS AS PESTICIDES” (Bayer Aktiengesellschaft, priority 2019, published 2022).

Legend:
Format in all cases: in vivo
Diabrotica balteata = Diabrotica balteata spray test; details: 168 h, wheat seeds, larvae, after 7 days, read-out: activity (efficacy: 100% means all seedlings have grown up like in the untreated, uninfected control); for pest or weed control at 32 µg/disc, 100 g/ha: application rate 100 g/ha (=32 μg/well); for pest or weed control at 160 µg/disc, 500 g/ha: application rate 500 g/ha (=160 μg/well)
In short: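 Wheat seedlings, germinated 1 day on agar, were sprayed with compound in acetone/DMF diluted in water containing emulsifier, then infested with 10-20 Diabrotica balteata larvae. After 7 days efficacy in % was scored: 100% means seedlings grew like the untreated, uninfected control; 0% means none grew.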

[1] = tested on: Aedes aegypti strain MONHEIM; test: Aedes aegypti test (AEDSAE surface treatment & contact assay); details: surface concentration 20 mg/m^2, glazed tile, exposure 30 minutes, 24 hours after contact, read-out: efficacy (mortality)
In short: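 Compound dissolved in acetone (2 mg/ml) with 2000 ppm rapeseed oil methyl ester, pipetted onto glazed tile and dried. Adult mosquitoes exposed on the surface for 30 min; percent mortality scored 24 h after contact.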

Rhipicephalus sanguineus = Rhipicephalus sanguineus in-vitro contact test, adult brown dog ticks (RHIPSA Cont); details: 48 h, after 48 hours, read-out: activity (efficacy: 100% means all ticks are dead or moribund); for pest or weed control at 1 µg/cm2, 100 g/ha: application rate 1 μg/cm^2 (=100 g/ha); for pest or weed control at 5 µg/cm2, 500 g/ha: application rate 5 μg/cm^2 (=500 g/ha)
In short: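 Compound in acetone (9 mg/mL stock, diluted to test concentration) is coated onto inner walls of glass tubes by rotation for 2 h at 30 rpm. Efficacy is read after 48 h: ticks are tapped down and held on a 45-50° C plate for at most 5 min, and immotile or uncoordinated ones that fail to climb away count as dead or moribund.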

Rhipicephalus microplus [2] = test: Rhipicephalus (Boophilus) microplus injection test (BOOPMI Inj); details: 168 h, injection into adult engorged female ticks, egg deposition after 7 days, read-out: activity (efficacy: 100% means all eggs are infertile); for pest or weed control at 0.02 mg: application rate 20 μg/tick; for pest or weed control at 0.004 mg: application rate 4 μg/tick
In short: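 Five engorged adult female R. microplus ticks injected into the abdomen with 1 μL of compound diluted in DMSO, then kept in a climate chamber. Fertile egg deposition checked after 7 days; eggs without visible fertility held until hatching at about 42 days. Efficacy: 100% = all eggs infertile, 0% = all fertile.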

[3] = tested on: Anopheles funestus strain FUMOZ-R; test: Anopheles funestus test (ANPHFU surface treatment & contact assay); details: exposure 30 minutes, 24 hours after contact, read-out: efficacy (mortality)
Description: Anopheles funestus Test (ANPHFU Surface Treatment & Contact Assay) Solvent: Aceton+2000 ppm rapeseed oil methyl ester (RME)
(§1) In order to produce a sufficient, active ingredient containing solution it is necessary to solve the test compound in the solvent-mix (acetone at 2 mg/ml/RME 2000 ppm). This solution is pipetted onto a glazed tile and after evaporation of the acetone, adult mosquitoes of the species Anopheles funestus strain FUMOZ-R (Hunt et al., Med. Vet. Entomol. 2005 September; 19(3): 271-275) are placed onto the dried surface. The exposure time is 30 minutes. Mortality in percent (%) is determined 24 hours after contact of the insects to the treated surface. 100% mortality means that all tested insects are dead, whereas 0% means that no insect died.

[4] = tested on: Musca domestica strain WHO—N; test: Musca domestica test (MUSCDO surface treatment & contact assay); details: surface concentration 20 mg/m^2, glazed tile, exposure 30 minutes, 24 hours after contact, read-out: efficacy (mortality)
In short: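 Compound dissolved in acetone (2 mg/ml) with 2000 ppm rapeseed oil methyl ester and pipetted onto glazed tile; after acetone evaporation, adult flies exposed to dried surface for 30 minutes. Mortality (%) scored 24 hours after contact.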

Spodoptera frugiperda = Spodoptera frugiperda spray test; details: in Zea mays, 168 h, read-out: activity (mortality)
In short: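 Maize leaf sections were sprayed with compound formulated in acetone/DMF and diluted in water containing 1000 ppm emulsifier. Dried leaves were infested with fall armyworm larvae, and percent mortality was scored after 7 days.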

[5] = tested on: Culex quinquefasciatus strain P00; test: Culex quinquefasciatus test (CULXFA surface treatment & contact assay); details: surface concentration 20 mg/m^2, glazed tile, exposure 30 minutes, 24 hours after contact, read-out: efficacy (mortality)
Description: Culex quinquefasciatus Test (CULXFA Surface Treatment & Contact Assay) Solvent: Aceton+2000 ppm rapeseed oil methyl ester (RME)
as §1, with “2 000” for “2000”, “Culex quinquefasciatus” for “Anopheles funestus”, “P00” for “FUMOZ-R (Hunt et al., Med. Vet. Entomol. 2005 September; 19(3): 271-275)”

Nezara viridula = Nezara viridula spray test; details: in Hordeum vulgare, 96 h, barley plants, larvae, after 4 days; for mortality at 500 g/ha: application rate 500 g/ha
In short: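 Barley plants infested with N. viridula larvae were sprayed with compound in acetone/DMF diluted with water containing 1000 ppm alkylarylpolyglycol ether emulsifier. Mortality (%) was scored after 4 days; 100% means all bugs killed, 0% none.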

Nilaparvata lugens = Nilaparvata lugens spray test; details: 96 h, rice plants, after 4 days; for mortality at 500 g/ha: application rate 500 g/ha
Description: Nilaparvata lugens—Spray Test Solvent: 78.0 parts by weight of acetone • • 1.5 parts by weight of dimethylformamide Emulsifier: alkylarylpolyglycol ether
To produce a suitable preparation of active compound, 1 part by weight of active compound is mixed with the stated amount of solvents and is diluted with water, containing an emulsifier concentration of 1000 ppm, to the desired concentration. Further test concentrations are prepared by dilution with emulsifier containing water.
Rice plants (Oryza sativa) are sprayed with a preparation of the active ingredient of the desired concentration and the plants are infested with the brown planthopper (Nilaparvata lugens).
After 4 days mortality in % is determined. 100% means all planthoppers have been killed and 0% means none of the planthoppers have been killed.

Myzus persicae = Myzus persicae oral test; details: 120 h, read-out: activity (mortality)
In short: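 Percent mortality was recorded at day 5, where 0% means no aphids killed. Compound prepared from an acetone concentrate diluted in water and combined with IPL41 medium containing sugar was offered to mixed-stage green peach aphids, which sucked it through a parafilm seal.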

Rhipicephalus microplus [6] = test: Rhipicephalus (Boophilus) microplus in-vitro contact test, larval cattle tick, strain Parkhurst (BOOPMI Cont); details: application rate 5 μg/cm^2 (=500 g/ha), tick larvae, after 48 hours, read-out: activity (efficacy: 100% means all larvae are dead or moribund)
In short: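 Acetone solutions dried onto glass tube walls (900 ppm giving 5 μg/cm^2); 20-50 pyrethroid-resistant Parkhurst larvae added per tube and held 48 h at 27° C., 85% relative humidity. Efficacy scored by negative geotaxis as % dead or moribund larvae.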

Ctenocephalides felis [7] = test: Ctenocephalides felis in-vitro contact test, adult cat flea (CTECFE Cont); details: application rate 5 μg/cm^2 (=500 g/ha), adult cat fleas, after 48 hours, read-out: activity (efficacy: 100% means all fleas are dead or moribund)
In short: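 Acetone solutions coated on glass tube inner walls (900 ppm giving 5 μg/cm^2), then 5-10 adult fleas added and held 48 h at room temperature. Fleas unable to escape a 45-50° C. heating plate within 5 min scored dead or moribund; efficacy = % dead/moribund.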

Ctenocephalides felis [8] = test: Ctenocephalides felis oral test (CTECFE Oral); details: 48 h, read-out: activity (mortality)
In short: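 About 20 unfed adult cat fleas fed through parafilm on cattle blood containing compound (DMSO concentrate diluted in blood to the desired concentration). Blood held at 37 °C, fleas at room temperature. Mortality (%) scored after 2 days.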

Compound | pest or weed control at 32 µg/disc, 100 g/ha (Diabrotica balteata) [%] | pest or weed control at 160 µg/disc, 500 g/ha (Diabrotica balteata) [%] | pest or weed control at 1 µg/cm2, 100 g/ha (Rhipicephalus sanguineus) [%] | pest or weed control at 5 µg/cm2, 500 g/ha (Rhipicephalus sanguineus) [%] | pest or weed control at 0.02 mg (Rhipicephalus microplus [2]) [%] | mortality at 100 g/ha (Spodoptera frugiperda) [%] | mortality at 500 g/ha (Spodoptera frugiperda) [%] | mortality at 500 g/ha (Nezara viridula) [%] | pest or weed control at 0.004 mg (Rhipicephalus microplus [2]) [%] | mortality at 500 g/ha (Nilaparvata lugens) [%] | mortality at 4 ppm (Myzus persicae) [%] | pest or weed control at 5 µg/cm2 (Rhipicephalus microplus [6]) [%] | further results
C[C@H](NC(=O)c1cccc(C(F)(F)F)n1)c1ncnn1-c1ccc(C#N)cn1 [II-4] | 80 | 100 | 100 | 100 | 100 | 100 | 100 | – | – | – | – | – | mortality at 20 mg/m2 [1]: 80 to 100%; mortality at 4 mg/m2 ([3]; surface concentration 4 mg/m^2, glazed tile): 80 to 100%; mortality at 20 mg/m2 ([3]; surface concentration 20 mg/m^2, glazed tile): 80 to 100%; mortality at 20 mg/m2 [4]: 80 to 100%; mortality at 20 mg/m2 [5]: 80 to 100%
C[C@H](NC(=O)c1cc(C(F)(F)F)cc(C(F)(F)F)c1)c1ncnn1-c1ccc(S(C)(=O)=O)cn1 [II-44] | 100 | 100 | 100 | 100 | 100 | 100 | 100 | 100 | 100 | 90 | 100 | 100 | –
C[C@H](NC(=O)c1cc(C(F)(F)F)cc(C(F)(F)F)c1)c1ncnn1-c1ccc(C(=O)N(C)CC(F)(F)F)cn1 [II-74] | 100 | 100 | 100 | 100 | 100 | 100 | 100 | 100 | 100 | 90 | 100 | 100 | pest or weed control at 5 µg/cm2 (Ctenocephalides felis [7]): 100%
Cc1nc([C@H](C)NC(=O)c2cc(C(F)(F)F)cc(C(F)(F)F)c2)n(-c2ccc(C(=O)N(C)CCN(C)C)cn2)n1 [II-95] | – | – | 100 | – | – | – | – | – | 80 | – | 90 | 90 | mortality at 100 g/ha (Nezara viridula; application rate 100 g/ha): 100%; mortality at 100 ppm (Ctenocephalides felis [8]): 100%; mortality at 100 g/ha (Nilaparvata lugens; application rate 100 g/ha): 90%
